Experimental data published in ChEMBL document CHEMBL2073769, “Direct evidence that saquinavir is transported by multidrug resistance-associated protein (MRP1) and canalicular multispecific organic anion transporter (MRP2)” (Antimicrob Agents Chemother, 2002).

Key:
[1] = biological target: Multidrug resistance-associated protein 1 (Homo sapiens, UniProt P33527); test: TP_TRANSPORTER: transepithelial transport (basal to apical) in MRP1-expressing MDCKII cells; type: functional, cell-based; details: dog, mdck-ii
Chain of Multidrug resistance-associated protein 1 (P33527 whole entry): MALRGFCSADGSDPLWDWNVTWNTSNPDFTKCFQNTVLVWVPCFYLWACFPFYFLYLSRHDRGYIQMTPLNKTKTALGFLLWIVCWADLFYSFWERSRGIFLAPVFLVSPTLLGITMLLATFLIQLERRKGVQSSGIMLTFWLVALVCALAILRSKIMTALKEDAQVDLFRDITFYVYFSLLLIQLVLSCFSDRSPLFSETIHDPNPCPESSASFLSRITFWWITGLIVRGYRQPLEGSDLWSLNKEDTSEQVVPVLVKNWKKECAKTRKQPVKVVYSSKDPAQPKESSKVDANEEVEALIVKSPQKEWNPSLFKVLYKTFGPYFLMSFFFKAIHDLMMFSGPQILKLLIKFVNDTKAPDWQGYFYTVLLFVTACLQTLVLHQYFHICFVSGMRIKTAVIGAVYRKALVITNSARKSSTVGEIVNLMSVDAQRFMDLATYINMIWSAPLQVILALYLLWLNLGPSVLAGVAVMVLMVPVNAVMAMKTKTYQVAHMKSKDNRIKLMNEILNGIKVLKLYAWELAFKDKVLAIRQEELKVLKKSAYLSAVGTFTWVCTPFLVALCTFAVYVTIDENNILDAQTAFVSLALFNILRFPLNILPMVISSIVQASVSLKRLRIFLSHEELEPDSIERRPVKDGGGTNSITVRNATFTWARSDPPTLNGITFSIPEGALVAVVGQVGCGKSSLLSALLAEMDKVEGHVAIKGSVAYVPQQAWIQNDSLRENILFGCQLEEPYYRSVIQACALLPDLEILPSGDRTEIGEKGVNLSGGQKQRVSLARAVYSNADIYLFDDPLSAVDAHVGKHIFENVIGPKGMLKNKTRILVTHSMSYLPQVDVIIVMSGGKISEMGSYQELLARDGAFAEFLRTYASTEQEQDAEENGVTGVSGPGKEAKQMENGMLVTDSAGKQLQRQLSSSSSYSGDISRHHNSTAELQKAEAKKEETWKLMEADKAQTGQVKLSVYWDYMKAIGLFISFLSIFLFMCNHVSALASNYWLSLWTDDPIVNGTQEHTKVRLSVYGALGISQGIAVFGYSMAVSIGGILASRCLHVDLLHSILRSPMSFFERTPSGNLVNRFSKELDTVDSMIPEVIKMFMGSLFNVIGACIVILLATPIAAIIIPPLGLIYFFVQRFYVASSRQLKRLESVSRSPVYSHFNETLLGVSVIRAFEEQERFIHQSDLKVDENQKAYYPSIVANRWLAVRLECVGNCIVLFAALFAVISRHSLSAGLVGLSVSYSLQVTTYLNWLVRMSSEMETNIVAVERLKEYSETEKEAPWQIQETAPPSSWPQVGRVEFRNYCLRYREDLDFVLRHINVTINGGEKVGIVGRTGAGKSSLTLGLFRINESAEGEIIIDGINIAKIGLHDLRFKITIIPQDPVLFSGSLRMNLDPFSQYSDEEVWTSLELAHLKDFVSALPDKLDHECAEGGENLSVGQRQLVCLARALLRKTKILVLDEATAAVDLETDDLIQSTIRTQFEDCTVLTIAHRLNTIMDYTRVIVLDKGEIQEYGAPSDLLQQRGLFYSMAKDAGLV

[2] = biological target: ATP-binding cassette sub-family C member 2 (Homo sapiens, UniProt Q92887); test: TP_TRANSPORTER: transepithelial transport (basal to apical) in MRP2-expressing MDCKII cells; type: functional, cell-based; details: dog, mdck-ii
Chain of ATP-binding cassette sub-family C member 2 (Q92887 whole entry): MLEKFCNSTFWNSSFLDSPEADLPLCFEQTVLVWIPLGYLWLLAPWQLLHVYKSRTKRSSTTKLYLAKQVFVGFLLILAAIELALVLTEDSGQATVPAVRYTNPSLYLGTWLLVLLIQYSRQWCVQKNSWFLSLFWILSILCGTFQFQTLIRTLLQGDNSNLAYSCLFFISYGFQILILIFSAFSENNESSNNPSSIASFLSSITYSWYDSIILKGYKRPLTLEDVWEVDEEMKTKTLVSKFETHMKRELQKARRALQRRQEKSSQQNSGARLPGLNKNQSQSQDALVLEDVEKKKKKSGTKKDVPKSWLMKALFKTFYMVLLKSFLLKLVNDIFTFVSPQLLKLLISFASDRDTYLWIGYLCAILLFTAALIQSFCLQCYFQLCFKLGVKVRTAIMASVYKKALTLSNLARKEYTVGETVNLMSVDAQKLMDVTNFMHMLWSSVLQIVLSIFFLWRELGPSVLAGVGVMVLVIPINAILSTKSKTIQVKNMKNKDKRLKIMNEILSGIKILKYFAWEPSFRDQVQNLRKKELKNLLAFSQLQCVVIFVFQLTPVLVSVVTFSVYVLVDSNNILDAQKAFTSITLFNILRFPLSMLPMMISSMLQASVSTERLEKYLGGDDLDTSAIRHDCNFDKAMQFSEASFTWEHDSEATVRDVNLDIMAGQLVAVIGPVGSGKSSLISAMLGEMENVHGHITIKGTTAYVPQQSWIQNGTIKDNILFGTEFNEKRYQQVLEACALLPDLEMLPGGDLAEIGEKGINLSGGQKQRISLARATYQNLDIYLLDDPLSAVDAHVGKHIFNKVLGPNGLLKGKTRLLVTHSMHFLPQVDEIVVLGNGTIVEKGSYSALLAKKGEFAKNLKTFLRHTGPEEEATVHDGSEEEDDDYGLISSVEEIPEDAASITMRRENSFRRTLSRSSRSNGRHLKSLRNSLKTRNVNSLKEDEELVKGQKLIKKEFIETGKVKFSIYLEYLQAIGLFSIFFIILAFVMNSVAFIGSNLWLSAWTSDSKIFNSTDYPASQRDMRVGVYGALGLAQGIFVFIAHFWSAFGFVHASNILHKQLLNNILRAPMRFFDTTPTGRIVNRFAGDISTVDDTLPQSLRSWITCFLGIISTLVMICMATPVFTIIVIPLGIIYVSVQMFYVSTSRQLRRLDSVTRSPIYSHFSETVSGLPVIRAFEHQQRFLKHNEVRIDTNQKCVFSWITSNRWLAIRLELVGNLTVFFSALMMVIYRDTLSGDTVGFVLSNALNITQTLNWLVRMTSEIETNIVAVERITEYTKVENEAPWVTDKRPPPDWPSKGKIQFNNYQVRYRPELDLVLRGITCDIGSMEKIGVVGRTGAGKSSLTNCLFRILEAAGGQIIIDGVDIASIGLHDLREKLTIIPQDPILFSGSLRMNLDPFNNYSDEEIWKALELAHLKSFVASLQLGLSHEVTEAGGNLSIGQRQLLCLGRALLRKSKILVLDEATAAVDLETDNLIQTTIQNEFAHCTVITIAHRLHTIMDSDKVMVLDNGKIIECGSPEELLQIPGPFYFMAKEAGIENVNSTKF

Activity [1]: substrate [+]
Activity [2]: substrate [+]
Structure (SMILES): CC(C)(C)NC(=O)[C@@H]1C[C@@H]2CCCC[C@@H]2CN1C[C@@H](O)[C@H](Cc1ccccc1)NC(=O)[C@H](CC(N)=O)NC(=O)c1ccc2ccccc2n1 [SAQUINAVIR]
